{"source": "paper PMC7677376", "about": "(Cell Discovery, 2020)", "molecular_target": "T1, MlaFEDB (Acinetobacter baumannii, UniProt A0A086HZU3)", "T1 construct": "gene ttg2A", "T1 sequence (V5V9K5 entry or part of it)": "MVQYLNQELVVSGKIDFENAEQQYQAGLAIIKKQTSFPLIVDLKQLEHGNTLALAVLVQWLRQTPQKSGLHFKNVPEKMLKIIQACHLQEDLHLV", "T1 sequence (V5V9F4 entry or part of it, further chain)": "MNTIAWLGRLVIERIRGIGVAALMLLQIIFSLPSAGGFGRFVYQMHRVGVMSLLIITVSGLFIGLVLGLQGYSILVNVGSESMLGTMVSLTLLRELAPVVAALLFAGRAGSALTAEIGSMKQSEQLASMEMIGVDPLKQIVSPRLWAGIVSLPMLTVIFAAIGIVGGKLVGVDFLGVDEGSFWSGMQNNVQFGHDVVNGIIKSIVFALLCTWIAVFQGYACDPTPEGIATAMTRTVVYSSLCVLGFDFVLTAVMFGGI", "T1 sequence (A0A086HZU3 entry or part of it)": "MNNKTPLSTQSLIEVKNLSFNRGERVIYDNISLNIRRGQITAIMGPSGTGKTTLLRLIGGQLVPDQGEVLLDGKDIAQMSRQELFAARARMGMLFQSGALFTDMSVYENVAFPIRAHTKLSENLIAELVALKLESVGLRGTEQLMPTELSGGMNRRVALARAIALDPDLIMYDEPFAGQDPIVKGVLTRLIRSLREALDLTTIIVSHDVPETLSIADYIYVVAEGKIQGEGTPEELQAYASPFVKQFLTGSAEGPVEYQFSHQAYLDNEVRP", "T1 sequence (V5V921 entry or part of it, further chain)": "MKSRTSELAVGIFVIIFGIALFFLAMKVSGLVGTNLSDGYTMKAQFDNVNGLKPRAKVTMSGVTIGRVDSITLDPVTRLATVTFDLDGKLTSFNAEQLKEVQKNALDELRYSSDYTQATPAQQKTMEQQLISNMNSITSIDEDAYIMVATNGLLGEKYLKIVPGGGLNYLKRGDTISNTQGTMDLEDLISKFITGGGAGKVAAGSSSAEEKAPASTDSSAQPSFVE", "settings": "1 mM vanadate; traps ADP-vanadate at the MlaF ATP sites"}
{"smiles": "[O]=[V]([OH])([OH])[OH]", "note": "[sodium ortho-vanadate]", "values": [{"measurement": "% inhibition at 1 mM", "result": "~ 50%"}]}
